The source of these data is patent US11712438B2, “Phenyl derivatives as PGE2 receptor modulators” (IDORSIA PHARMACEUTICALS LTD, priority 2017, dated 2023).

Assay [1] addresses PTGER2 (EP2) (Homo sapiens, UniProt P43116). The experiment in a line: cell-based.
Excerpt: The assay is using the PathHunter™ HEK 293 PTGER2 and PTGER4 b-arrestin cell lines from DiscoverX. The system is based on the Enzyme Fragment Complementation Technology. Two complementing fragments of the b-galactosidase enzyme are expressed within stably transfected cells. The larger portion of b-gal, termed EA for Enzyme Acceptor, is fused to the C-terminus of b-arrestin 2. The smaller fragment, termed ProLink™ tag, is fused to PTGER2 (EP2) or PTRGER4 (EP4) at the C-terminus. Upon activation, b-arrestin is recruited which forces the interaction of ProLink and EA, allowing complementation of the two fragments of b-gal and the formation of a functional enzyme which is capable of hydrolysing the substrate and generating a chemiluminescent signal.
The HEK 293 PTGER2 b-arrestin cells (DiscoverX 93-021-4C1) are detached from culture dishes with a cell dissociation buffer (Invitrogen, 13151-014), and collected in growing medium (GM: DMEM+Glutamax-I (Invitrogen 32430)/10% FCS, 1% Penicilin/streptomycin). 5000 cells per well of a 384 well plate (white with white bottom Greiner 781080) are seeded in 20 ul per well of GM. Plate is incubated at 37° C., 5% CO2 for 24 hours.
Stock solutions of test compounds are made at a concentration of 10 mM in DMSO, and serially diluted in DMSO to concentrations required for inhibition dose response curves (tested concentration range 10 μM-2 nM or 1 μM-0.2 nM).
PGE2 (Cayman 14010, stock solution: 10 mM in DMSO) is used as agonist at 5 μM final concentration, corresponding to EC80.
Five microliters of diluted compounds are transferred into the assay plate. Plate is pre-incubated 15 minutes at 37° C. Then five microliters of PGE2 (final conc. 5 μM) are transferred into the assay plate. Plate is incubated 120 minutes at 37° C.
Twelve μl of reagent are transferred to the assay plate and incubate for 1 hour at room temperature in the dark. Luminescence counts are read on a BMG Fluostar Optima reader according to manufacturer's instructions.
For each compound concentration calculate of the percentage of activity compared to DMSO control value as average±STDEV. (each concentration is measured in duplicate)
When compounds were measured multiple times, mean values are given.
For assay [2], the target named is PTRGER4 (EP4) (Homo sapiens, UniProt P35408). The assay is described as follows: cell-based.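 Also: assay plate preincubated 15 min at 37 °C, after which PGE2 was added at 20 nM final and incubation continued 120 min at 37 °C.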

SMILES strings stand for the structures.

Sequence of PTRGER4 (EP4) (P35408 whole entry): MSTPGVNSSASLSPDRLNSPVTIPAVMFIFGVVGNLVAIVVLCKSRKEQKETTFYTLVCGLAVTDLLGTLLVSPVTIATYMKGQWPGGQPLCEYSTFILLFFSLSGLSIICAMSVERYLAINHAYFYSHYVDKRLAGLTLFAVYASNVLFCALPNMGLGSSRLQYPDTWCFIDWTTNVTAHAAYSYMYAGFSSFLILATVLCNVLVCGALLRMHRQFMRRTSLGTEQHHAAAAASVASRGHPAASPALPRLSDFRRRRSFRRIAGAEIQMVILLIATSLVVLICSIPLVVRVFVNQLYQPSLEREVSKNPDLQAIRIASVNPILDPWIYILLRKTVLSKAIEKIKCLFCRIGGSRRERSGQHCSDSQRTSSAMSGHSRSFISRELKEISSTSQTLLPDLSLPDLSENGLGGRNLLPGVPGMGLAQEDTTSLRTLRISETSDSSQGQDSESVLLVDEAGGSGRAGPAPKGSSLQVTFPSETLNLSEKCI
Sequence of PTGER2 (EP2) (P43116 whole entry): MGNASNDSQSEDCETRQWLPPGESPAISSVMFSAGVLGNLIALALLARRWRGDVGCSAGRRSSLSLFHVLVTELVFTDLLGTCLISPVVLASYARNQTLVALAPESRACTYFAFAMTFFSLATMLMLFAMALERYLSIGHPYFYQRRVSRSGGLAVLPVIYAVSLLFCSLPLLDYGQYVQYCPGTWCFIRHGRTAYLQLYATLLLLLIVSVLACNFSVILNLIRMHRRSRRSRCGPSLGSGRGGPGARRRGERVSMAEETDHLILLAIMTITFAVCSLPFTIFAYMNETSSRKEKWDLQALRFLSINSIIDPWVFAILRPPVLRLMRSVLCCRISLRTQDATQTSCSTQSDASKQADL

Consider `CCOc1c(C(=O)O)ccc(-c2cc(NCCc3c(F)cc(Br)cc3F)ncn2)c1F` [Example 274, 4-{6-[2-(4-Bromo-2,6-difluoro-phenyl)-ethylamino]-pyrimidin-4-yl}-2-ethoxy-3-fluoro-benzoic acid], for which the half-maximal inhibitory concentration (IC50) (usually the concentration at which inhibition is half-maximal) worked out at 0.16 µM in assay [1] and 0.646 µM in assay [2].
Taken in the same sequence, the figures for `CCc1cc(-c2cc(NCCc3c(F)cc(Br)cc3F)ncn2)cc(C)c1CC(=O)O` [Example 257, (4-{6-[2-(4-Bromo-2,6-difluoro-phenyl)-ethylamino]-pyrimidin-4-yl}-2-ethyl-6-methyl-phenyl)-acetic acid] were 0.212 µM and 0.239 µM.
With `CCOc1cc(-c2cc(NCCc3c(F)cc(Br)cc3F)ncn2)ccc1C(=O)NCC(C)(C)O` [Example 302, 4-{6-[2-(4-Bromo-2,6-difluoro-phenyl)-ethylamino]-pyrimidin-4-yl}-2-ethoxy-N-(2-hydroxy-2-methyl-propyl)-benzamide], the half-inhibitory concentration (IC50) in assay [1] is 0.121 µM; in assay [2], 0.565 µM.
For `Fc1cc(Br)cc(F)c1CCNc1cc(-c2ccc3[nH]ccc3c2)ncn1` [Example 258, [2-(4-Bromo-2,6-difluoro-phenyl)-ethyl]-[6-(1H-indol-5yl)-pyrimidin-4-yl]amine], in that order: 0.077 µM and 0.174 µM.
Regarding `CCCc1cc(-c2cc(NCCc3c(F)cc(Br)cc3F)ncn2)ccc1Cc1noc(=O)[nH]1` [Example 284, 3-(4-{6-[2-(4-Bromo-2,6-difluoro-phenyl)-ethylamino]-pyrimidin-4-yl}-2-propyl-benzyl)-[1,2,4]oxadiazol-5(4H)-one], the results for the half-maximal inhibitory concentration (IC50) in assay [1] and in assay [2] were 0.295 µM and 0.199 µM, respectively.
Taken in the same sequence, the figures for `CCOc1cc(-c2cc(NCCc3c(F)cc(Br)cc3F)ncn2)ccc1-c1noc(=S)[nH]1` [Example 290, 3-(4-{6-[2-(4-Bromo-2,6-difluoro-phenyl)-ethylamino]-pyrimidin-4-yl}-2-ethoxy-phenyl)-[1,2,4]oxadiazole-5(4H)-thione] were 0.048 µM and 0.028 µM.
For `CCOc1cc(-c2cc(NCCc3c(F)cc(Br)cc3F)ncn2)ccc1C(N)=O` [Example 297, 4-{6-[2-(4-Bromo-2,6-difluoro-phenyl)-ethylamino]-pyrimidin-4-yl}-2-ethoxy-benzamide], in that order: 0.021 µM and 0.236 µM.
Regarding `COc1cc(F)c(CCNc2cc(-c3ccc(C(=O)O)c(SC)c3)ncn2)c(F)c1` [Example 229, 4-{6-[2-(2,6-Difluoro-4-methoxy-phenyl)-ethylamino]-pyrimidin-4-yl}-2-methylsulfanyl-benzoic acid], the half-inhibitory concentration (IC50) came to 0.081 µM in assay [1] and 0.273 µM in assay [2].
As to `NC(=O)Nc1ccc(-c2cc(NCCc3c(F)cc(Br)cc3F)ncn2)cc1` [Example 265, (4-{6-[2-(4-Bromo-2,6-difluoro-phenyl)-ethylamino]-pyrimidin-4-yl}-phenyl)-urea], the results for the IC50 in assay [1] and in assay [2] were 0.242 µM and 0.452 µM, respectively.
On to `O=C1Cc2cc(-c3cc(NCCc4c(F)cc(Br)cc4F)ncn3)ccc2N1` [Example 312, 5-{6-[2-(4-Bromo-2,6-difluoro-phenyl)-ethylamino]-pyrimidin-4-yl}-1,3-dihydro-indol-2-one], for which the IC50 in assay [1] was 0.175 µM; in assay [2] it was 0.703 µM.
Taken in the same sequence, the figures for `CCCc1cc(-c2cc(NCCc3c(F)cc(Br)cc3F)ncn2)ccc1C(=O)NCC(C)(C)O` [Example 308, 4-{6-[2-(4-Bromo-2,6-difluoro-phenyl)-ethylamino]-pyrimidin-4-yl}-N-(2-hydroxy-2-methyl-propyl)-2-propyl-benzamide] were 0.156 µM and 0.164 µM.
For `CCOc1cc(-c2cc(NCCc3c(F)cccc3OC)ncn2)sc1C(=O)O` [Example 177, 3-Ethoxy-5-{6-[2-(2-fluoro-6-methoxy-phenyl)-ethylamino]-pyrimidin-4-yl}-thiophene-2-carboxylic acid], in that order: 0.126 µM and 0.343 µM.
On to `CCc1cc(-c2cc(NCCc3c(F)cc(Br)cc3F)ncn2)cc(Cl)c1CC(=O)O` [Example 253, (4-{6-[2-(4-Bromo-2,6-difluoro-phenyl)-ethylamino]-pyrimidin-4-yl}-2-chloro-6-ethyl-phenyl)-acetic acid], for which the concentration for half-maximal inhibition (IC50) in assay [1] turned out to be 0.191 µM; in assay [2], 0.17 µM.
Taken in the same sequence, the figures for `CCOc1cc(C(F)(F)F)ccc1CCNc1cc(-c2ccc(CC(=O)O)c(OCC)c2)ncn1` [Example 214, (2-Ethoxy-4-{6-[2-(2-ethoxy-4-trifluoromethyl-phenyl)-ethylamino]-pyrimidin-4-yl}-phenyl)-acetic acid] were 0.184 µM and 0.062 µM.
Consider `CCCc1cc(-c2cc(NCCc3ccc(OC(F)F)cc3OC)ncn2)ccc1C(=O)O` [Example 222, 4-{6-[2-(4-Difluoromethoxy-2-methoxy-phenyl)-ethylamino]-pyrimidin-4-yl}-2-propyl-benzoic acid], for which the IC50 in assay [1] is 0.231 µM; in assay [2], 0.286 µM.
As to `COc1cc(C(F)(F)F)cc(F)c1CCNc1cc(-c2ccc(C(=O)O)c(SC)c2)ncn1` [Example 230, 4-{6-[2-(2-Fluoro-6-methoxy-4-trifluoromethyl-phenyl)-ethylamino]-pyrimidin-4-yl}-2-methylsulfanyl-benzoic acid], the figures for the IC50 in assay [1] and in assay [2] were 0.662 µM and 0.152 µM, respectively.
As for `CCOc1cc(-c2cc(NCCc3c(F)cc(Br)cc3F)ncn2)ccc1C(=O)C(=O)O` [Example 239, (4-{6-[2-(4-Bromo-2,6-difluoro-phenyl)-ethylamino]-pyrimidin-4-yl}-2-ethoxy-phenyl)-oxo-acetic acid], the figures for the IC50 in assay [1] and in assay [2] were 0.3 µM and 0.387 µM, respectively.
For `CCOc1cc(-c2cc(NCCc3cc(Cl)c(C(F)(F)F)cc3OC)ncn2)ccc1C(=O)O` [Example 195, 4-{6-[2-(5-Chloro-2-methoxy-4-trifluoromethyl-phenyl)-ethylamino]-pyrimidin-4-yl}-2-ethoxy-benzoic acid], in that order: 0.837 µM and 0.269 µM.
Taken in the same sequence, the figures for `Cc1cc(-c2cc(NCCc3c(F)cc(Br)cc3F)ncn2)cc(Cl)c1CC(=O)O` [Example 264, (4-{6-[2-(4-Bromo-2,6-difluoro-phenyl)-ethylamino]-pyrimidin-4-yl}-2-chloro-6-methyl-phenyl)-acetic acid] were 0.372 µM and 0.465 µM.
Taken in the same sequence, the figures for `CCn1cc(-c2cc(NCCc3c(F)cc(Br)cc3F)ncn2)cc1C(=O)O` [Example 269, 4-{6-[2-(4-Bromo-2,6-difluoro-phenyl)-ethylamino]-pyrimidin-4-yl}-1-ethyl-1H-pyrrole-2-carboxylic acid] were 0.258 µM and 0.768 µM.
For `CN1C(=O)NCc2ccc(-c3cc(NCCc4c(F)cc(Br)cc4F)ncn3)cc21` [Example 262, 7-{6-[2-(4-Bromo-2,6-difluoro-phenyl)-ethylamino]-pyrimidin-4-yl}-1-methyl-3,4-dihydro-1H-quinazolin-2-one], the half-maximal inhibitory concentration (IC50) in assay [1] worked out at 0.088 µM; in assay [2], 0.149 µM.
For the compound `O=C(O)c1coc2cc(-c3cc(NCCc4c(F)cc(Br)cc4F)ncn3)ccc12` [Example 272, 6-{6-[2-(4-Bromo-2,6-difluoro-phenyl)-ethylamino]-pyrimidin-4-yl}-benzofuran-3-carboxylic acid], the IC50 in assay [1] turned out to be 0.174 µM; in assay [2], 0.426 µM.
For `COC(=O)c1ccc(-c2cc(NCCc3c(F)cc(Br)cc3F)ncn2)cc1SC` [Example 246, 4-{6-[2-(4-Bromo-2,6-difluoro-phenyl)-ethylamino]-pyrimidin-4-yl}-2-methylsulfanyl-benzoic acid methyl ester], in that order: 0.479 µM and 0.277 µM.
Taken in the same sequence, the figures for `CCOc1c(CC(=O)O)ccc(-c2cc(NCCc3c(F)cc(Br)cc3F)ncn2)c1F` [Example 175, (4-{6-[2-(4-Bromo-2,6-difluoro-phenyl)-ethylamino]-pyrimidin-4-yl}-2-ethoxy-3-fluoro-phenyl)-acetic acid] were 0.258 µM and 0.461 µM.
With `CCCc1cc(-c2cc(NCCc3cc(C)c(C)cc3OC)ncn2)ccc1C(=O)O` [Example 189], the half-inhibitory concentration (IC50) was 0.295 µM in assay [1] and 0.338 µM in assay [2].
Consider `CCOc1cc(-c2cc(NCCc3ccc(C(F)(F)F)cc3OC)ncn2)ccc1C(=O)O` [Example 205, 2-Ethoxy-4-{6-[2-(2-methoxy-4-trifluoromethyl-phenyl)-ethylamino]-pyrimidin-4-yl}-benzoic acid], for which the figures for the IC50 in assay [1] and in assay [2] were 0.966 µM and 0.681 µM, respectively.
With `COc1cc(C(N)=O)ccc1-c1cc(NCCc2c(F)cc(Br)cc2F)ncn1` [Example 292, 4-{6-[2-(4-Bromo-2,6-difluoro-phenyl)-ethylamino]-pyrimidin-4-yl}-3-methoxy-benzamide], the half-inhibitory concentration (IC50) in assay [1] came to 0.1 µM; in assay [2] it was 0.893 µM.
Taken in the same sequence, the figures for `CCCc1cc(-c2cc(NCCc3c(C)cc(C)cc3OC)ncn2)ccc1C(=O)O` [Example 201, 4-{6-[2-(2-Methoxy-4,6-dimethyl-phenyl)-ethylamino]-pyrimidin-4-yl}-2-propyl-benzoic acid] were 0.14 µM and 0.482 µM.
For the compound `CC(C)Oc1cc(-c2cc(NCCc3c(F)cc(Br)cc3F)ncn2)ccc1C(=O)O` [Example 251, 4-{6-[2-(4-Bromo-2,6-difluoro-phenyl)-ethylamino]-pyrimidin-4-yl}-2-isopropoxy-benzoic acid], the 50% inhibitory concentration (IC50) was determined as 0.254 µM in assay [1] and 0.831 µM in assay [2].
Take `CCOc1cc(-c2cc(NCCc3c(F)cc(Br)cc3F)ncn2)ccc1C(=O)NC` [Example 298, 4-{6-[2-(4-Bromo-2,6-difluoro-phenyl)-ethylamino]-pyrimidin-4-yl}-2-ethoxy-N-methyl-benzamide]: the IC50 in assay [1] is 0.128 µM; in assay [2] it was 0.301 µM.
Taken in the same sequence, the figures for `CCCOc1cc(-c2cc(NCCc3cc(C)c(C)cc3OC)ncn2)ccc1CC(=O)O` [Example 194, (4-{6-[2-(2-Methoxy-4,5-dimethyl-phenyl)-ethylamino]-pyrimidin-4-yl}-2-propoxy-phenyl)-acetic acid] were 0.548 µM and 0.207 µM.
